Assay results as given in publication PMC10447463, “Data-mining unveils structure–property–activity correlation of viral infectivity enhancing self-assembling peptides” (Nature Communications, 2023).

Key:
[1] = Zeta-potential measurement; type: physicochemical; parameters: Zeta-Potential: unit not given here; settings: for Zeta-Potential / mV: mean, Figure 7B
Method in brief: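 Aggregates: 1 mg/mL peptide, PBS pH 7.4, 1 d RT; dilute in KCl (1 mM, aq); measure mobility → zeta via Smoluchowski.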

[2] = type: physicochemical; parameters: key to Fibril / Fibril Formation / TEM 2cat / Fibril: 1 = fibrils present; 0 non-fibrillar structures; settings: TEM, 1 mg/mL, uranyl acetate stain, qualitative
Procedure: For ATR FT–IR spectroscopy measurements, 200 µL of the respective 1 mg/mL PNF solution was lyophilized and the resulting powder used for measurement. All spectra were recorded on a Bruker Tensor 27 spectrometer with a diamond crystal as ATR element (PIKE MiracleTM, spectral resolution 2 cm^-1). Every sample was measured with 64 scans. Data were analyzed with OriginLab software and calculation of β–sheet content was conducted according to a previous report. TEM. For TEM measurements 5 µL of PNF fibrils (1 mg/mL) were placed on copper grids coated with carbon and formvar layer (300 mesh, Plano GmbH). After 10 min incubation time, the grids were staining with 4% uranyl acetate solution for 2.5 min and washed with water. Measurements were performed on a Jeol 1400 electron microscope with 120 kV acceleration voltage. CR Assay. For the determination of the amount of peptide monomer converting into nanostructures the amine reactive dye fluorescamine was used analogous to a previous reported protocol. Briefly, 100 µL of the preformed PNF solution was centrifuged in a Vivaspin 500 tube (3 kDa MWCO) to separate fibers from free peptide monomer (16200 x g, 4 °C, 45 min). The filtrate and 100 μL of the non-filtered PNF sample were lyophilized and dissolved in 30 μL DMSO. 10 μL of the filtrate and non-filtered DMSO samples were submitted in a black UV Star® 384 microliter well–plates (Greiner bio–one) and 3 μL of the fluorescamine solution (10 mg/mL, DMSO) was added to measure the fluorescence enhancement. After 20 min of incubation at RT, fluorescence was recorded on an Infinite® M1000 PRO microplate reader (Tecan) at λem = 470 nm upon excitation at λex = 365 nm with 10 nm bandwidths and multiple reads per well (3×3). Measurements were repeated in triplicates and averaged with standard deviation. All values were calculated as n-fold fluorescence enhancement (DMSO only as a reference was set to 1). The conversion rate CR was defined according to the equation Eq. (3).3 CR=100−100×fluorescenceintensityfiltrate/fluorescenceintensityoriginal[%]
(§1) 1. Remarks on experimental parameters and bioinformatic descriptors
1.1 Experimental parameters
Transmission electron microscopy (TEM) measurements. TEM measurements were used to control if peptides assemble. The assemblies were categorized in non -fibrillar structures (no assembly, […]
grid but only amorphous aggregates. In contrast, peptides defined as fibrillar may also include amorphous structures. Amongst nonfibrillar assemblies also amorphous aggregates are summarized.
Amorphous aggregates are defined as structures with high β-sheet content which lack long-range order, that is crystallinity or fibril formation. It is generally assumed that these structures might be

[3] = system: HIV-1 infection of TZM-bl cells; experiment: HIV-1 infectivity enhancement assay, β-galactosidase luminescence; type: cell-based; settings: for Log10 Infection Rel EF-C: log10 of infection relative to EF-C, Figure 7B; for Inf. rel. EF-C: n-fold infection vs virus only, relative to that of EF-C, 1.3 µM peptide; for Abs Infection at 0.26µM: peptide 0.26 µM; for Abs Infection at 0.26µM / Abs Infection at 1.3 µM / Abs Infection at 6.5 µM: mean of n = 3, Figure 7A; for Abs Infection at 1.3 µM: peptide 1.3 µM; for Abs Infection at 6.5 µM: peptide 6.5 µM
[4] = Turbidity, derived count rate of scattered light; type: physicochemical; settings: for Count Rate / kcps: derived count rate of scattered light at 633 nm, 173°, from zeta-potential measurement, 0.1 mg/mL in 1 mM KCl after 1 d at 1 mg/mL in PBS, turbidity / microscopic aggregation, mean of triplicate; for Count Rate: derived count rate of scattered light
Procedure: 4 µL of 1 mg/mL peptide fibrils solution is added to a 20 µL, 50 µM ThT–solution in PBS. The mixture is incubated for 15 min at RT to allow binding of ThT dye with β–sheet rich structures. For reference PBS (4 µL) was added instead of peptide fibril solution. The samples were placed in black UV Star® 384 microliter well–plates (Greiner bio–one). Fluorescence spectra were recorded on an Infinite® M1000 PRO microplate reader (Tecan) at λem = 488 nm upon excitation at λex = 440 nm with 10 nm bandwidths and multiple reads per well (3×3). Measurements were repeated in triplicates and averaged with standard deviation. […] Zeta-Potential. For the determination of the surface charge of aggregated peptides zeta-potential measurements were conducted with a Zetasizer Nano ZS, Malvern Instruments. Unless stated otherwise the peptides were dissolved from DMSO (10 mg/mL) in PBS (pH 7.4) to concentration of 1 mg/mL and incubated for 1d at RT. Just before the measurement the 60 µL of the peptides were further diluted in 600 µL KCl (aq, 1 mM) in a 1 mL disposable folded capillary cells (DTS–1060, Zetasizer Nano series, Malvern). The zeta potential of the peptides was derived from the electrophoretic mobility based on the Smoluchowski formula. All measurements were averaged over two individually performed experiments and conducted in triplicates for each sample. Aggregate analysis. […] Furthermore, fluorescence microscopy was conducted by staining 1 µL preformed fibrils (1 mg/mL) with 9 µL ThT (50 µM). Brightfield microscopy was performed simultaneously to evaluate aggregation also for non ThT-active fibrils. The measurements were performed on a Leica DMi8 microscope with 10x air objective and equipped with a Leica MC170 HD camera with a filter setting λem = 527/30 nm upon excitation at λex = 480/40 nm) and processed with the Leica LASX software. To quantify size and number of microscopic aggregation of particles > 10 µm^2 at least 3 independently measured images were analyzed via the 3D object counter analysis tool of ImageJ, v 1.53f51. Sum–frequency generation. The SFG experiments were carried out with a femtosecond Ti: Sapphire amplified laser system (Spitfire Ace, Spectra–Physics, 800 nm, 40 fs, 1 kHz) with 5 W output power. We used 2 W to pump an optical parametric amplifier (TOPAS, light conversion) with a non–collinear difference frequency generation stage to generate broadband IR pulses. Another 1 W of the laser output passed through an etalon to generate narrowband visible pulses (10 cm^-1). The incident angles of the visible and IR beams were 36° and 41° with respect to the surface normal, respectively. The visible (13 µJ) and IR (5 µJ) pulses were overlapped spatially and temporally at the sample position. Subsequently, the generated SFG pulse was guided into a spectrograph (Acton SP 300i, Princeton Instruments), and detected with an EMCCD (Newton, Andor Technology). To avoid IR absorption of water vapor, we purged N2 for the measurement. All spectra were collected in the ssp (denoting s-, s- and p-polarized SFG, visible and IR, respectively) polarization combination. The spectra were normalized to the non–resonant signal taken from z–cut quartz after subtracting a background spectrum. […]
ways to determine turbidity of samples, this can be via transmittance and via scattering. Transmittance […]
as it is an easy and fast method.10,11 However, transmittance contributes not only from µm-sized aggregates but also nm-sized aggregates such as distinct fibrils, which makes hard to distinguish between fibril formation and micrometer sized aggregation. Although dynamic light scattering is a frequently applied method for determination of particle size, it cannot be conducted in solutions with anisotropic aggregates in micrometer size range, since the Stokes-Einstein relation is only applicable for homogeneous […] spherical particles.12 Further models describing scattering intensity and […]

[5] = Turbidity, derived count rate of scattered light; type: physicochemical; settings: log10 of derived count rate of scattered light, Figure 7B
[6] = type: physicochemical; settings: ThT-active if fluorescence at least twice the control
Procedure: 4 µL of 1 mg/mL peptide fibrils solution is added to a 20 µL, 50 µM ThT–solution in PBS. The mixture is incubated for 15 min at RT to allow binding of ThT dye with β–sheet rich structures. For reference PBS (4 µL) was added instead of peptide fibril solution. The samples were placed in black UV Star® 384 microliter well–plates (Greiner bio–one). Fluorescence spectra were recorded on an Infinite® M1000 PRO microplate reader (Tecan) at λem = 488 nm upon excitation at λex = 440 nm with 10 nm bandwidths and multiple reads per well (3×3). Measurements were repeated in triplicates and averaged with standard deviation. […] Zeta-Potential. For the determination of the surface charge of aggregated peptides zeta-potential measurements were conducted with a Zetasizer Nano ZS, Malvern Instruments. Unless stated otherwise the peptides were dissolved from DMSO (10 mg/mL) in PBS (pH 7.4) to concentration of 1 mg/mL and incubated for 1d at RT. Just before the measurement the 60 µL of the peptides were further diluted in 600 µL KCl (aq, 1 mM) in a 1 mL disposable folded capillary cells (DTS–1060, Zetasizer Nano series, Malvern). The zeta potential of the peptides was derived from the electrophoretic mobility based on the Smoluchowski formula. All measurements were averaged over two individually performed experiments and conducted in triplicates for each sample. Aggregate analysis. […] Furthermore, fluorescence microscopy was conducted by staining 1 µL preformed fibrils (1 mg/mL) with 9 µL ThT (50 µM). Brightfield microscopy was performed simultaneously to evaluate aggregation also for non ThT-active fibrils. The measurements were performed on a Leica DMi8 microscope with 10x air objective and equipped with a Leica MC170 HD camera with a filter setting λem = 527/30 nm upon excitation at λex = 480/40 nm) and processed with the Leica LASX software. To quantify size and number of microscopic aggregation of particles > 10 µm^2 at least 3 independently measured images were analyzed via the 3D object counter analysis tool of ImageJ, v 1.53f51. Sum–frequency generation. The SFG experiments were carried out with a femtosecond Ti: Sapphire amplified laser system (Spitfire Ace, Spectra–Physics, 800 nm, 40 fs, 1 kHz) with 5 W output power. We used 2 W to pump an optical parametric amplifier (TOPAS, light conversion) with a non–collinear difference frequency generation stage to generate broadband IR pulses. Another 1 W of the laser output passed through an etalon to generate narrowband visible pulses (10 cm^-1). The incident angles of the visible and IR beams were 36° and 41° with respect to the surface normal, respectively. The visible (13 µJ) and IR (5 µJ) pulses were overlapped spatially and temporally at the sample position. Subsequently, the generated SFG pulse was guided into a spectrograph (Acton SP 300i, Princeton Instruments), and detected with an EMCCD (Newton, Andor Technology). To avoid IR absorption of water vapor, we purged N2 for the measurement. All spectra were collected in the ssp (denoting s-, s- and p-polarized SFG, visible and IR, respectively) polarization combination. The spectra were normalized to the non–resonant signal taken from z–cut quartz after subtracting a background spectrum.
as §1

TZM-bl cells = type: cell-based; settings: CellTiter-Glo, mean of n = 3 replicates
Procedure: The cell viability after addition of peptides to TZM–bl cells was studied via the CellTiter–Glo assay. To this end, 10,000 cells were seeded and on the next day serial diluted peptides were added. After 3 days the supernatant was removed and 100 µL CellTiter–Glo Reagent 1:1 diluted in PBS was added. After 10 min 50 µL was transferred to white microplate and luminescence was recorded by Orion microplate luminometer.
2. Cell Viability of Representatively Selected Peptides
Figure S 2 Cell Viability normalized to 100% metabolic activity as determined by CellTiterGlo Assay of 57 representatively selected peptides from the library. The selection represents infectivity enhancing and not […]
concentration. Error bars indicate standard deviation from triplicate measurements. Source data for Figure S2 […]
Figure S3 Cell Viability normalized to 100% metabolic activity determined by CellTiterGlo Assay of 20 peptides reported in literature. 33,34,43–48,35–42 Cell viability (> 80%) is maintained for all peptides at 1.3 µM concentration regardless of the preparation method, which is A PNF formation method by dilution of 10 mg/mL peptide stock in DMSO in PBS to 1 mg/mL or B preparation according to literature reported protocol (SI Section 8). Error bars indicate standard deviation from triplicate measurements. Source data for Figure S3 is provided.

Row | Sequence | Zeta-Potential / mV [1] | Log10 Infection Rel EF-C [3] | Inf. rel. EF-C [3] | Abs Infection at 0.26µM [3] | Abs Infection at 1.3 µM [3] | Abs Infection at 6.5 µM [3] | Count Rate / kcps [4] | Log10 Count Rate [5] | other results
1 | ISKLEYSNFSVRY [reference compound] | 9.33 mV | -0.26 | 0.54 | 23820 | 58613.33333 | 157450 | 7807 kcps | 3.893 | Zeta pot. / mV ([1]; 1 mg/mL in PBS pH 7.4 from 10 mg/mL DMSO stock, 1 d RT, 60 µL diluted in 600 µL 1 mM KCl, Zetasizer Nano ZS, Smoluchowski, mean of triplicate): 9.3 mV; Fibril / Fibril Formation [2]: 1
2 | LANWMCLAKW [reference compound] | 14.73 mV | -0.4 | 0.40 | 44873.33333 | 80126.66667 | 133423.3333 | 15062 kcps | 4.178 | Zeta Potential ([1]; mean of n = 3): 14.73; Zeta-Potential ([1]; replicate 1): 14.5; Zeta-Potential ([1]; replicate 2): 14.6; Zeta-Potential ([1]; replicate 3): 15.1; ThT Cat. / ThT-Fluorescence (categorical) [6]: 1 (ThT. Cat is 1, if Rel. ThT >2); Count Rate ([4]; mean of n = 3): 15061.73333 kcps; Count Rate ([4]; replicate 1): 20482.8 kcps; Count Rate ([4]; replicate 2): 10116.2 kcps; Count Rate ([4]; replicate 3): 14586.2 kcps
3 | QCKIKQIINMWQ [EF-C (Münch Stock)] |  |  |  |  |  |  |  |  | viability 0.26 µM (TZM-bl cells; peptide 0.26 µM): 102; viability 1.3 µM (TZM-bl cells; peptide 1.3 µM): 94.89; viability 6.5 µM (TZM-bl cells; peptide 6.5 µM): 78.3
